{"source": "the supplement of paper PMC11208160", "data": [{"assay": "recombinant barcode read abundance after kanamycin selection (control-corrected) (log10(CPM+1)); higher = more efficient recombination; sequences stand for … in AGTGCAGAGAAAATCGGCCAGTTTTCTCTGCCTGCAGTCCGCATGCCGT…AGATTTATGCAGCGGACTGCCTTTCTCCCAAAGTGATAAACCGGACAGTATCATGGACCGGTTTTCCCGGTAATCCGTATTTGCAAGGTTGGTTTCACT; site = the 11-nt target", "procedure,_shortened": "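This pooled E. coli screen matched targets with IS621 bridge RNA target-binding loops. Plating was done in duplicate on chloramphenicol/ampicillin LB agar as a control and on chloramphenicol/ampicillin/kanamycin plus 0.1 mM IPTG. Recombination efficiency reflects barcode counts at recombinant junctions as counts per million, averaged and control-corrected. The figures are log10(CPM+1).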", "values": [{"sequence": "CGGCCCTCTTGGGTTCTAACCTGTTGCCT (site CTGCCCTCTAG)", "recombinant barcode read abundance (log10)": 0.185}, {"sequence": "CGGCCGACTTGGGTTCTAACCTGTTGCGG (site CGGCCGACTCC)", "recombinant barcode read abundance (log10)": 2.36}, {"sequence": "CGGCCGACTTGGGTTCTAACCTGTTGCGG (site CGGGCGCCTCC)", "recombinant barcode read abundance (log10)": 0.184}, {"sequence": "CGGCTATCTTGGGTTCTAACCTGTTGCCT (site CGGCTATCTAG)", "recombinant barcode read abundance (log10)": 0.194}, {"sequence": "CGGCTATCTTGGGTTCTAACCTGTTGCCT (site TGGCTATCTAG)", "recombinant barcode read abundance (log10)": 0.0495}, {"sequence": "CGGCTCACTTGGGTTCTAACCTGTTGCCT (site CGGCTCACTAG)", "recombinant barcode read abundance (log10)": 1.66}, {"sequence": "CGGCTCACTTGGGTTCTAACCTGTTGCCT (site CGGCTGACTAG)", "recombinant barcode read abundance (log10)": 0.123}, {"sequence": "CGGGAAGCTTGGGTTCTAACCTGTTGCCT (site CGGGAAGCTAG)", "recombinant barcode read abundance (log10)": 1.61}, {"sequence": "CGGGAAGCTTGGGTTCTAACCTGTTGCCT (site CGGGGAGCTCG)", "recombinant barcode read abundance (log10)": 0.287}, {"sequence": "CGGGACCCTTGGGTTCTAACCTGTTGCCT (site CGGGACCCTAG)", "recombinant barcode read abundance (log10)": 1.26}, {"sequence": "CGGGACCCTTGGGTTCTAACCTGTTGCCT (site CGTGACCCTAA)", "recombinant barcode read abundance (log10)": 0.634}, {"sequence": "CGGGCAGCTTGGGTTCTAACCTGTTGCCT (site CGAGCAGCTAG)", "recombinant barcode read abundance (log10)": 0.0303}, {"sequence": "CGGGCAGCTTGGGTTCTAACCTGTTGCCT (site CGCGCAGCTAG)", "recombinant barcode read abundance (log10)": 0.0844}, {"sequence": "CGGGCAGCTTGGGTTCTAACCTGTTGCCT (site CGGGCAGCTAG)", "recombinant barcode read abundance (log10)": 0.0664}, {"sequence": "CGGGCAGCTTGGGTTCTAACCTGTTGCCT (site CGTGCAGCTAG)", "recombinant barcode read abundance (log10)": 0.156}, {"sequence": "CGGGCCACTTGGGTTCTAACCTGTTGCGT (site CGGCCCACTCC)", "recombinant barcode read abundance (log10)": 0.175}, {"sequence": "CGGGCCACTTGGGTTCTAACCTGTTGCGT (site CGGGCCACTAC)", "recombinant barcode read abundance (log10)": 2.99}, {"sequence": "CGGGCGTCTTGGGTTCTAACCTGTTGCTT (site CGGACGTCTCA)", "recombinant barcode read abundance (log10)": 0.148}, {"sequence": "CGGGCGTCTTGGGTTCTAACCTGTTGCTT (site CGGGCGTCTAA)", "recombinant barcode read abundance (log10)": 1.46}, {"sequence": "CGGTCCTCTTGGGTTCTAACCTGTTGCGC (site CGGGCCTCTGT)", "recombinant barcode read abundance (log10)": 0.0542}, {"sequence": "CGGTCCTCTTGGGTTCTAACCTGTTGCGC (site CGGTCCTCTGC)", "recombinant barcode read abundance (log10)": 2.63}, {"sequence": "CGGTCTACTTGGGTTCTAACCTGTTGCCT (site CAGTCTACTAG)", "recombinant barcode read abundance (log10)": 0.0894}, {"sequence": "CGGTCTACTTGGGTTCTAACCTGTTGCCT (site CCGTCTACTAG)", "recombinant barcode read abundance (log10)": 0.264}, {"sequence": "CGGTCTACTTGGGTTCTAACCTGTTGCCT (site CGGTCTACTAG)", "recombinant barcode read abundance (log10)": 0.219}, {"sequence": "CGGTCTACTTGGGTTCTAACCTGTTGCCT (site CTGTCTACTAG)", "recombinant barcode read abundance (log10)": 0.0592}, {"sequence": "CGGTCTGCTTGGGTTCTAACCTGTTGCAT (site CGGTCTGCTAT)", "recombinant barcode read abundance (log10)": 0.826}, {"sequence": "CGGTCTGCTTGGGTTCTAACCTGTTGCAT (site GCTAGGACTCA)", "recombinant barcode read abundance (log10)": 0.217}, {"sequence": "CGGTGTCCTTGGGTTCTAACCTGTTGCTT (site AGGTGTCCTAA)", "recombinant barcode read abundance (log10)": 0.0515}, {"sequence": "CGGTGTCCTTGGGTTCTAACCTGTTGCTT (site CGGTGTCCTAA)", "recombinant barcode read abundance (log10)": 1.21}, {"sequence": "CGGTTGCCTTGGGTTCTAACCTGTTGCGT (site CGGTCGCCTAT)", "recombinant barcode read abundance (log10)": 0.318}, {"sequence": "CGGTTGCCTTGGGTTCTAACCTGTTGCGT (site CGGTTGCCTAC)", "recombinant barcode read abundance (log10)": 2.48}, {"sequence": "CGTAATGCTTGGGTTCTAACCTGTTGCCT (site CGAAATGCTAG)", "recombinant barcode read abundance (log10)": 0.178}]}]}
